Results: PubChem BioAssay AID1963849 (Molecular Pharmacology Branch, DTP, NCI, 2024)

Test system: 299254-011-R-J1-PDC complex spheroid viability
Assay: Anticancer human tumor 299254-011-R-J1-PDC patient-derived melanoma cell line growth inhibition [POLQ]
Settings: for IC50: curve of first compound; for viability, T/C: stronger effect = lower value
Description: Multicellular complex tumor spheroid response to Polymerase (POL) inhibitors (novobiocin, ART-558, RP6685) in combination with a variety of drugs and investigational agents in selected tumor cell lines
The POL inhibitors (novobiocin, ART-558, and RP6685) were evaluated both individually and in combination with standard of care and investigational anticancer small molecules within a complex spheroid model of solid tumors. . Complex spheroids include a stromal component modeled by human endothelial cells (HUVEC) and fibroblasts modeled by human mesenchymal stem cells (MSCs). The concentration ranges selected for each drug and investigational agent were based upon clinically achievable concentrations if the clinical Cmax of the agent was known.
Compounds. The drugs and investigational agents: novobiocin (NSC847541), ART-558 (NSC835418), RP-6685 (NSC848927), peposertib (NSC802822), ceralasertib (NSC780249), elimusertib (NSC800525), camonsertib (NSC841442), AZD-1390 (NSC803789), olaparib (NSC753686), talazoparib (NSC767125), rucaparib (NSC756644), sotorasib (NSC818433), MRTX-1133 (NSC836407), SN-38 (NSC673596), topotecan (NSC609699), epotoside (NSC141540), doxorubicin (NSC123127), gemcitabine (NSC613327), 5-fluorouracil (NSC19893), paclitaxel (NSC125973), vemurafenib (NSC761431), MSA-2 (NSC828583), SN-011 (NSC837082), adavosertib (NSC754352), prexasertib (NSC758257), carboplatin (NSC241240) and oxaliplatin (NSC266046), were obtained from the National Cancer Institute (NCI) Developmental Therapeutics Program Chemical Repository (21). The FDA-approved anticancer drug set is available from the Developmental Therapeutics Program at https://dtp.cancer.gov/organization/dscb/obtaining/. […] The stock solutions were prepared in dimethyl sulfoxide (DMSO, Sigma-Aldrich, St. Louis, MO, cat. D2650), except for the platinum compounds which were prepared in saline (Quality Biological, Gaithersburg, MD, cat. 114-055-101), at 800-fold the tested concentration and stored at -70 degrees C prior to their use. All drugs and investigational agents were tested over a range starting from a high concentration at or near the clinical Cmax and decreasing in half-log increments. If the clinical Cmax for an agent had not been determined, the highest concentration tested was 10 microM, except for SN-38, which was tested at a high concentration of 1 microM.
Cell Culture. All cells were maintained in an incubator at 37 degrees C and 5% CO2 with 95% humidity. The PDC lines were cultured according to standard operating procedures established by the NCI PDMR (https://pdmr.cancer.gov). Table 3 of the manuscript, lists the cell lines along with the number of the three cell types plated to form the mct-spheroids and media for tumor cell growth. After thawing, all PDC lines, except 997537-175-T-J1-PDC and 415267-285-R-J2-PDC, were cultured in Matrigel-coated flasks prepared with a working solution of 1X Ham's F-12 nutrient mix, without supplementation (Thermo Fisher Scientific, cat. 11765054), 100 U/mL penicillin-streptomycin (Thermo Fisher Scientific, cat. 15140122), and 2.5% Matrigel (Corning Inc., Corning, NY, cat. 354248) for the first three passages. The two PDC lines 997537-175-T-J1-PDC and 415267-285-R-J2-PDC were cultured on uncoated flasks. The 857933-349-R-J2-PDC line was cultured in 6C/Colon 1B media containing advanced DMEM/F-12 (Thermo Fisher Scientific, cat. 12634028), 10 mM HEPES (Thermo Fisher Scientific, cat. 15630080), 1X GlutaMAX supplement (Thermo Fisher Scientific, cat. 35050061), 0.1 mg/mL primocin (InvivoGen, San Diego, CA, cat. ant-pm-2), 10% defined fetal bovine serum, heat inactivated (HyClone Laboratories Inc., Logan, UT, cat. SH30070.03HI), 50% L-WRN conditioned media (ATCC, cat. CRL-3276), 1.25 mM N-Acetyl-L-cysteine (Sigma-Aldrich, cat. A9165), 10 mM nicotinamide (Sigma-Aldrich, cat. N0636), 1X B-27 supplement (Thermo Fisher Scientific, cat. 17504044), 1X N-2 supplement (Thermo Fisher Scientific, cat. […]

[1] = second compound 0.0316 µM, first compound 0.0316 µM
[2] = second compound 0.0316 µM, first compound 0.1 µM
[3] = second compound 0.0316 µM, first compound 0.316 µM
[4] = second compound 0.0316 µM, first compound 1 µM
[5] = second compound 0.1 µM, first compound 0.0316 µM
[6] = second compound 0.1 µM, first compound 0.1 µM
[7] = second compound 0.1 µM, first compound 0.316 µM
[8] = second compound 0.1 µM, first compound 1 µM
[9] = second compound 0.316 µM, first compound 0.0316 µM
[10] = second compound 0.316 µM, first compound 0.1 µM
[11] = second compound 0.316 µM, first compound 0.316 µM
[12] = second compound 0.316 µM, first compound 1 µM
[13] = second compound 1 µM, first compound 0.0316 µM
[14] = second compound 1 µM, first compound 0.1 µM
[15] = second compound 1 µM, first compound 0.316 µM
[16] = second compound 1 µM, first compound 1 µM
[17] = second compound 3.16 µM, first compound 0.0316 µM
[18] = second compound 3.16 µM, first compound 0.1 µM
[19] = second compound 3.16 µM, first compound 0.316 µM
[20] = second compound 3.16 µM, first compound 1 µM
[21] = second compound 10 µM, first compound 0.0316 µM
[22] = second compound 10 µM, first compound 0.1 µM
[23] = second compound 10 µM, first compound 0.316 µM
[24] = second compound 10 µM, first compound 1 µM
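Note: spheroids exposed to drugs for one week before measurement.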
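Throughout, for viability, T/C: percent viability relative to DMSO vehicle control taken as 100%.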

`C=CCn1c(=O)c2cnc(Nc3ccc(N4CCN(C)CC4)cc3)nc2n1-c1cccc(C(C)(C)O)n1` + COC1C(OC(N)=O)C(O)C(Oc2ccc3c(O)c(NC(=O)c4ccc(O)c(CC=C(C)C)c4)c(=O)oc3c2C)OC1(C)C was tested, and the IC50 (second compound 0.0316 µM) was over 1 µM, the IC50 (second compound 0.1 µM) was over 1 µM and the IC50 (second compound 0.316 µM) was over 1 µM. The IC50 (second compound 1 µM) was over 1 µM, the IC50 (second compound 3.16 µM) was over 1 µM and the IC50 (second compound 10 µM) was over 1 µM. For the same compound, the viability, T/C (second compound 0.0316 µM, first compound 0.00316 µM) was 89.1%, the viability, T/C (second compound 0.0316 µM, first compound 0.01 µM) was 99.6% and the viability, T/C [1] was 99.6%. For the same compound, the viability, T/C [2] was 112%, the viability, T/C [3] was 95.1% and the viability, T/C [4] was 74.4%. The viability, T/C (second compound 0.1 µM, first compound 0.00316 µM) was 116%, the viability, T/C (second compound 0.1 µM, first compound 0.01 µM) was 97.7% and the viability, T/C [5] was 127%. The viability, T/C [6] was 122%, the viability, T/C [7] was 87.5% and the viability, T/C [8] was 64.5%. It also gave a viability, T/C (second compound 0.316 µM, first compound 0.00316 µM) of 105%, a viability, T/C (second compound 0.316 µM, first compound 0.01 µM) of 99% and a viability, T/C [9] of 101%. For the same compound, the viability, T/C [10] was 98.6%, the viability, T/C [11] was 115% and the viability, T/C [12] was 60.5%. It also gave a viability, T/C (second compound 1 µM, first compound 0.00316 µM) of 111%, a viability, T/C (second compound 1 µM, first compound 0.01 µM) of 96.2% and a viability, T/C [13] of 96.4%. It also gave a viability, T/C [14] of 102%, a viability, T/C [15] of 97.9% and a viability, T/C [16] of 78.2%. For the same compound, the viability, T/C (second compound 3.16 µM, first compound 0.00316 µM) was 112%, the viability, T/C (second compound 3.16 µM, first compound 0.01 µM) was 103% and the viability, T/C [17] was 94.9%. For the same compound, the viability, T/C [18] was 107%, the viability, T/C [19] was 95.3% and the viability, T/C [20] was 69.6%. The viability, T/C (second compound 10 µM, first compound 0.00316 µM) was 104%, the viability, T/C (second compound 10 µM, first compound 0.01 µM) was 121% and the viability, T/C [21] was 115%. For the same compound, the viability, T/C [22] was 119%, the viability, T/C [23] was 95.2% and the viability, T/C [24] was 68.9%.

With `CC1COCCN1c1cc(C2(S(C)(=N)=O)CC2)nc(-c2ccnc3[nH]ccc23)n1` (centres undefined) + COC1C(OC(N)=O)C(O)C(Oc2ccc3c(O)c(NC(=O)c4ccc(O)c(CC=C(C)C)c4)c(=O)oc3c2C)OC1(C)C the IC50 (second compound 0.0316 µM) was 6.05 µM, the IC50 (second compound 0.1 µM) was 5.77 µM and the IC50 (second compound 0.316 µM) was 6.98 µM. For the same compound, the IC50 (second compound 1 µM) was 5.46 µM, the IC50 (second compound 3.16 µM) was 7.19 µM and the IC50 (second compound 10 µM) was 6.75 µM. It also gave a viability, T/C [1] of 110%, a viability, T/C [2] of 116% and a viability, T/C [3] of 102%. The viability, T/C [4] was 85.3%, the viability, T/C (second compound 0.0316 µM, first compound 3.16 µM) was 66.5% and the viability, T/C (second compound 0.0316 µM, first compound 10 µM) was 38.1%. The viability, T/C [5] was 110%, the viability, T/C [6] was 95% and the viability, T/C [7] was 111%. For the same compound, the viability, T/C [8] was 106%, the viability, T/C (second compound 0.1 µM, first compound 3.16 µM) was 60.9% and the viability, T/C (second compound 0.1 µM, first compound 10 µM) was 39.9%. The viability, T/C [9] was 98.9%, the viability, T/C [10] was 98.7% and the viability, T/C [11] was 110%. The viability, T/C [12] was 106%, the viability, T/C (second compound 0.316 µM, first compound 3.16 µM) was 69.9% and the viability, T/C (second compound 0.316 µM, first compound 10 µM) was 41%. It also gave a viability, T/C [13] of 112%, a viability, T/C [14] of 122% and a viability, T/C [15] of 109%. For the same compound, the viability, T/C [16] was 85.8%, the viability, T/C (second compound 1 µM, first compound 3.16 µM) was 65% and the viability, T/C (second compound 1 µM, first compound 10 µM) was 35.7%. For the same compound, the viability, T/C [17] was 101%, the viability, T/C [18] was 122% and the viability, T/C [19] was 105%. For the same compound, the viability, T/C [20] was 101%, the viability, T/C (second compound 3.16 µM, first compound 3.16 µM) was 70.4% and the viability, T/C (second compound 3.16 µM, first compound 10 µM) was 41.8%. The viability, T/C [21] was 122%, the viability, T/C [22] was 103% and the viability, T/C [23] was 109%. For the same compound, the viability, T/C [24] was 90.9%, the viability, T/C (second compound 10 µM, first compound 3.16 µM) was 73.6% and the viability, T/C (second compound 10 µM, first compound 10 µM) was 37.6%.
